What was measured:
Assay in all cases: relative viability (nuclei count vs DMSO), 5 days (fraction); higher = more cells survive
OSI-027 + Pictilisib = compound: COc1cccc2cc(-c3nc([C@H]4CC[C@H](C(=O)O)CC4)n4ncnc(N)c34)[nH]c12 [OSI-027] + CS(=O)(=O)N1CCN(Cc2cc3nc(-c4cccc5[nH]ncc45)nc(N4CCOCC4)c3s2)CC1 [Pictilisib] (partner 1 µM)
Summary of the method: (§1)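 After 5 days of treatment, lung cancer cells in 1536-well plates were fixed and stained in a single step (final 0.05% Triton X-100, 1% formaldehyde, 1 ug/ml Hoechst) and their nuclei counted on 4× images. Treatment had been applied by pin tool the day after seeding as one drug alone or as a fixed anchor-drug dose with five library-drug doses (not always all listed) in √10 steps. Relative viability is the nuclei count of treated wells divided by that of vehicle wells, and values are medians of duplicate plates.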

Vemurafenib + Alpelisib = compound: CCCS(=O)(=O)Nc1ccc(F)c(C(=O)c2c[nH]c3ncc(-c4ccc(Cl)cc4)cc23)c1F [Vemurafenib] + Cc1nc(NC(=O)N2CCC[C@H]2C(N)=O)sc1-c1ccnc(C(C)(C)C(F)(F)F)c1 [Alpelisib] (partner 2 µM)
Summary of the method: as §1

Alpelisib + Pemetrexed = compound: Cc1nc(NC(=O)N2CCC[C@H]2C(N)=O)sc1-c1ccnc(C(C)(C)C(F)(F)F)c1 [Alpelisib] + Nc1nc2[nH]cc(CCc3ccc(C(=O)N[C@@H](CCC(=O)O)C(=O)O)cc3)c2c(=O)[nH]1 [Pemetrexed] (partner 0.2 µM)
Summary of the method: as §1

Alpelisib + Trametinib = compound: Cc1nc(NC(=O)N2CCC[C@H]2C(N)=O)sc1-c1ccnc(C(C)(C)C(F)(F)F)c1 [Alpelisib] + CC(=O)Nc1cccc(-n2c(=O)n(C3CC3)c(=O)c3c(Nc4ccc(I)cc4F)n(C)c(=O)c(C)c32)c1 [Trametinib] (partner 0.02 µM)
Summary of the method: as §1

| Cell Line | relative viability (OSI-027 + Pictilisib; first compound 0.01 µM) | relative viability (OSI-027 + Pictilisib; first compound 0.03162 µM) | relative viability (OSI-027 + Pictilisib; first compound 0.1 µM) | relative viability (OSI-027 + Pictilisib; first compound 0.3162 µM) | relative viability (OSI-027 + Pictilisib; first compound 1 µM) | relative viability (Vemurafenib + Alpelisib; first compound 0.03162 µM) | relative viability (Vemurafenib + Alpelisib; first compound 0.1 µM) | relative viability (Vemurafenib + Alpelisib; first compound 0.3162 µM) | relative viability (Vemurafenib + Alpelisib; first compound 1 µM) | relative viability (Alpelisib + Pemetrexed; first compound 0.04 µM) | relative viability (Alpelisib + Pemetrexed; first compound 0.1265 µM) | relative viability (Alpelisib + Pemetrexed; first compound 0.4 µM) | relative viability (Alpelisib + Pemetrexed; first compound 1.265 µM) | relative viability (Alpelisib + Pemetrexed; first compound 4 µM) | relative viability (Alpelisib + Trametinib; first compound 0.04 µM) | relative viability (Alpelisib + Trametinib; first compound 0.1265 µM) | relative viability (Alpelisib + Trametinib; first compound 0.4 µM) | relative viability (Alpelisib + Trametinib; first compound 1.265 µM) | relative viability (Alpelisib + Trametinib; first compound 4 µM) |
| --- | --- | --- | --- | --- | --- | --- | --- | --- | --- | --- | --- | --- | --- | --- | --- | --- | --- | --- | --- |
| EBC-1 | 0.344 | 0.359 | 0.299 | 0.216 | 0.238 | 0.835 | 0.833 | 0.805 | 0.834 | – | – | – | – | – | – | – | – | – | – |
| EKVX | 0.456 | 0.384 | 0.368 | 0.302 | 0.177 | 0.821 | – | 0.904 | 0.777 | 0.411 | 0.406 | 0.461 | 0.341 | 0.349 | 0.306 | 0.334 | 0.27 | 0.341 | 0.249 |
| EMC-BAC-2 | 0.597 | 0.47 | 0.469 | 0.431 | 0.376 | 0.704 | 0.657 | 0.704 | 0.698 | 0.448 | 0.461 | 0.447 | 0.441 | 0.353 | 0.818 | – | 0.892 | 0.529 | 0.599 |
| EPLC-272H | 0.287 | 0.308 | 0.296 | 0.316 | 0.215 | 0.927 | 0.676 | 0.942 | 0.889 | 0.394 | 0.363 | 0.355 | 0.276 | 0.238 | 0.268 | 0.255 | 0.315 | 0.238 | 0.231 |
| H3255 | 0.466 | 0.471 | 0.441 | 0.379 | 0.24 | 0.688 | – | 0.643 | 0.663 | 0.586 | 0.614 | 0.603 | 0.526 | 0.507 | 0.649 | 0.541 | 0.642 | 0.422 | 0.391 |
| HARA | 0.334 | 0.402 | 0.397 | 0.242 | 0.258 | 0.801 | – | 0.879 | 0.823 | 0.254 | 0.249 | 0.26 | 0.23 | 0.274 | 0.633 | 0.732 | 0.529 | 0.257 | 0.265 |
| HCC-15 | 0.768 | 0.771 | 0.68 | 0.596 | 0.367 | 0.864 | 0.892 | 0.874 | 0.881 | 0.228 | 0.218 | 0.211 | 0.21 | 0.211 | 0.354 | 0.37 | 0.366 | 0.248 | 0.211 |
| HCC-44 | 0.521 | 0.572 | 0.481 | 0.32 | 0.365 | 0.761 | 0.755 | 0.784 | 0.795 | 0.65 | 0.706 | 0.698 | 0.65 | 0.619 | 1.05 | 1.12 | 1.03 | 0.849 | 0.81 |
| HCC-78 | 0.202 | 0.225 | 0.184 | 0.19 | 0.207 | 0.351 | 0.249 | 0.663 | 0.361 | 0.854 | 0.941 | 0.951 | 0.854 | 0.887 | 0.578 | 0.779 | 0.816 | 0.458 | 0.53 |
